Experiments:
[1] = tested on: K-Ras G12C (NCI-H358 cells); assay: Potency assay: pERK in NCI-H358 cells; assay type: cell-based, human; details: Homo sapiens; NCI-H358 cells, 4 hours; read-out: pERK EC50 (H358 KRAS G12C)
Procedure, shortened: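 Cells plated the day before were exposed for 4 h at 37° C, 5% CO2 to a 10-point, 3-fold DMSO dilution series (10 mM top stock), in duplicate. Phospho-ERK was read by AlphaLISA SureFire Ultra or by In-Cell Western with DRAQ5 DNA stain, and IC50 came from a 4-parameter sigmoidal fit.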

[2] = tested on: NCI-H358 cells (K-Ras G12C); assay: CellTiter-Glo cell viability, NCI-H358; assay type: cell-based, human; details: Homo sapiens, NCI-H358, 120 h, K-Ras G12C, 5-day treatment; read-out: H358 Cell Viability IC50
Procedure, shortened: (§1)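 Endpoint: CellTiter-Glo luminescence on day 5, following ~30 min at room temperature. Data as (sample/mean DMSO)×100, four-parameter logistic fit.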

[3] = molecular target: NRAS G12C (Homo sapiens (Human), UniProt P01111+P62937, G12C); assay: Ras-Raf disruption/FRET/MOA assay (BRAF RBD, Cyclophilin A); assay type: biochemical; details: read-out: NRAS G12C FRET data IC50
NRAS G12C, sequence (P01111 whole entry G12C): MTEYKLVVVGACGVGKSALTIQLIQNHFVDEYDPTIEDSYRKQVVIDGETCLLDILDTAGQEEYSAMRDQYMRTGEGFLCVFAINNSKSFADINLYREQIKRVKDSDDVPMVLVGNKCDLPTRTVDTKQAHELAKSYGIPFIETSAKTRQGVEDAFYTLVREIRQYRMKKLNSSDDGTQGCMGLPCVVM
NRAS G12C, sequence (P62937 whole entry): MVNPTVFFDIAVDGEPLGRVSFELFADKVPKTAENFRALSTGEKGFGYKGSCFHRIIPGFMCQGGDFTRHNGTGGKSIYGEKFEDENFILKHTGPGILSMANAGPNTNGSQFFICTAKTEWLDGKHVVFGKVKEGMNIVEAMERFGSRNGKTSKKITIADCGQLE
Procedure, shortened: (§2)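 TR-FRET read after 1.5 h with 10 nM anti-His Eu-W1024 and 50 nM anti-GST APC, following 3 h at 25 °C of GMPPNP-loaded His6-Ras (12.5 nM), GST-BRAF RBD (50 nM) and Cyclophilin A (25 μM) with compound from 30 μM final, 10 points, 3-fold. IC50 reported; pH 7.3 HEPES, 100 mM NaCl.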

[4] = molecular target: KRAS G12S (Homo sapiens (Human), UniProt P01116+P62937, G12S); assay: as above; assay type: biochemical; details: read-out: KRAS G12S FRET IC50
KRAS G12S, sequence (P01116 other isoform, or with tags, fused parts or gaps G12S): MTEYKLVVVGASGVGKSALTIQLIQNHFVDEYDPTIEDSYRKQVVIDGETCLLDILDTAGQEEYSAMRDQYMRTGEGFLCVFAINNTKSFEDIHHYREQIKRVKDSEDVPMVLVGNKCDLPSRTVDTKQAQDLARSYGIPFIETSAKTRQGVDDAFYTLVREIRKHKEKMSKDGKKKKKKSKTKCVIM
KRAS G12S, sequence (P62937 whole entry): as the sequence (P62937 whole entry) above
Procedure, shortened: (§3)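 Ras-GMPPNP (12.5 nM), BRAF RBD (50 nM) and 25 μM Cyclophilin A were incubated with compound for 3 h at 25° C, then detected 1.5 h with anti-His Eu and anti-GST APC; IC50 values follow from the reduced TR-FRET ratio.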

[5] = molecular target: KRAS G13C (Homo sapiens (Human), UniProt P01116+P62937, G13C); assay: as above; assay type: biochemical; details: read-out: KRAS G13C FRET IC50
KRAS G13C, sequence (P01116 other isoform, or with tags, fused parts or gaps G13C): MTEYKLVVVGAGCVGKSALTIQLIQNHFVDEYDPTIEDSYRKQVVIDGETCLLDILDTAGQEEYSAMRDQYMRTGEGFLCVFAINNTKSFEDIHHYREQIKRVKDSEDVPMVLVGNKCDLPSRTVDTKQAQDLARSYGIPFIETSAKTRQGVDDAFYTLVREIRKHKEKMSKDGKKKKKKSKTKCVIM
KRAS G13C, sequence (P62937 whole entry): as the sequence (P62937 whole entry) above
Procedure, shortened: as §3

[6] = molecular target: KRAS G13D (Homo sapiens (Human), UniProt P01116+P62937, G13D); assay: as above; assay type: biochemical; details: read-out: KRAS G13D FRET data IC50
KRAS G13D, sequence (P01116 other isoform, or with tags, fused parts or gaps G13D): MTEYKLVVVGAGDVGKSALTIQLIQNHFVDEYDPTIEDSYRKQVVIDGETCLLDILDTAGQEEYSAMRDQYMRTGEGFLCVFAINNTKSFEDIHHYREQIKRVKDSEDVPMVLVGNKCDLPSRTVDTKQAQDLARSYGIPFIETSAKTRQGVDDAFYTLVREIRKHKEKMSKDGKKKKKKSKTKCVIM
KRAS G13D, sequence (P62937 whole entry): as the sequence (P62937 whole entry) above
Procedure, shortened: as §3

[7] = molecular target: KRAS G12D (Homo sapiens (Human), UniProt P01116+P62937, G12D); assay: as above; assay type: biochemical; details: read-out: KRAS G12D FRET IC50
KRAS G12D, sequence (P01116 other isoform, or with tags, fused parts or gaps G12D): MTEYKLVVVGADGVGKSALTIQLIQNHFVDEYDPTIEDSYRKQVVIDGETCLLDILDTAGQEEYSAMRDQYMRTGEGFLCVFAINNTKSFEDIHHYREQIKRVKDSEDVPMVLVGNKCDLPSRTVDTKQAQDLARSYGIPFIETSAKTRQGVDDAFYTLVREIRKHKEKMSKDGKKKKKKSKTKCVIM
KRAS G12D, sequence (P62937 whole entry): as the sequence (P62937 whole entry) above
Procedure, shortened: as §3

[8] = molecular target: KRAS G12C (Homo sapiens (Human), UniProt P01116+P62937, G12C); assay: as above; assay type: biochemical; details: read-out: KRAS G12C FRET IC50
KRAS G12C, sequence (P01116-2 other isoform, or with tags, fused parts or gaps G12C): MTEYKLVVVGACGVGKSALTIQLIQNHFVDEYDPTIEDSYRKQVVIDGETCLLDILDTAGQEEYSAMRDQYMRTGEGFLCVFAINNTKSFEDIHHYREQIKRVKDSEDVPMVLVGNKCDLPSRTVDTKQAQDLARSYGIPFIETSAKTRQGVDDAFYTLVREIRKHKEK
KRAS G12C, sequence (P62937 whole entry): as the sequence (P62937 whole entry) above
Procedure, shortened: as §3

[9] = molecular target: KRAS G12V (Homo sapiens (Human), UniProt P01116+P62937, G12V); assay: as above; assay type: biochemical; details: read-out: KRAS G12V FRET IC50
KRAS G12V, sequence (P01116 other isoform, or with tags, fused parts or gaps G12V): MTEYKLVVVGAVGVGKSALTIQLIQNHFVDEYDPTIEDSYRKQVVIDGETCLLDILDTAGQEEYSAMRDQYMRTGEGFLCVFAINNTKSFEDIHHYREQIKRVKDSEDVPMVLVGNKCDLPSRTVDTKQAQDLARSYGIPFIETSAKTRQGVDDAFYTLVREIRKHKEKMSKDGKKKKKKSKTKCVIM
KRAS G12V, sequence (P62937 whole entry): as the sequence (P62937 whole entry) above
Procedure, shortened: as §3

[10] = molecular target: NRAS Q61R (Homo sapiens (Human), UniProt P01111+P62937, Q61R); assay: as above; assay type: biochemical
NRAS Q61R, sequence (P01111 whole entry Q61R): as the sequence (P01111 whole entry G12C) above, with C12G, Q61R counted along it
NRAS Q61R, sequence (P62937 whole entry): as the sequence (P62937 whole entry) above
Procedure, shortened: as §2

[11] = molecular target: NRAS WT (Homo sapiens (Human), UniProt P01111+P62937); assay: as above; assay type: biochemical
NRAS WT, sequence (P01111 whole entry): as the sequence (P01111 whole entry G12C) above, with C12G counted along it
NRAS WT, sequence (P62937 whole entry): as the sequence (P62937 whole entry) above
Procedure, shortened: as §2

[12] = molecular target: KRAS WT (Homo sapiens (Human), UniProt P01116+P62937); assay: as above; assay type: biochemical; details: read-out: KRAS WT FRET data IC50
KRAS WT, sequence (P01116 other isoform, or with tags, fused parts or gaps): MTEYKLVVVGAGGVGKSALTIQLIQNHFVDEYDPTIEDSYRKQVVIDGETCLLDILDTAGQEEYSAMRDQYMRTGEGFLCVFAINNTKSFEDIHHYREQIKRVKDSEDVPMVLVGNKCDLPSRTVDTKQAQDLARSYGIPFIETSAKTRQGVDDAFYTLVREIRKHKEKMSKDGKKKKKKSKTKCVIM
KRAS WT, sequence (P62937 whole entry): as the sequence (P62937 whole entry) above
Procedure, shortened: as §3

[13] = tested on: Capan-1 cells (K-Ras G12V); assay: CellTiter-Glo cell viability, Capan-1; assay type: cell-based, human; details: Homo sapiens, CAPAN-1, 120 h, K-Ras G12V, 5-day treatment; read-out: Capan-1 Cell Viability IC50
Procedure, shortened: as §1

[14] = molecular target: KRAS Q61H (Homo sapiens (Human), UniProt P01116+P62937, Q61H); assay: Ras-Raf disruption/FRET/MOA assay (BRAF RBD, Cyclophilin A); assay type: biochemical
KRAS Q61H, sequence (P01116 other isoform, or with tags, fused parts or gaps Q61H): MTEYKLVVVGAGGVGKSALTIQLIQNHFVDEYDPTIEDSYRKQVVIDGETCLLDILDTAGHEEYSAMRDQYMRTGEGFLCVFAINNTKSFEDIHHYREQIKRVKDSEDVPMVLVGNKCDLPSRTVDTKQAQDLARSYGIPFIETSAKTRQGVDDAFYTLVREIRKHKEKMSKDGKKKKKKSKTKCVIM
KRAS Q61H, sequence (P62937 whole entry): as the sequence (P62937 whole entry) above
Procedure, shortened: as §3

[15] = molecular target: K-Ras G12C(GMP-PNP) binding to BRAF RBD (Homo sapiens (Human), UniProt P01116+P62937, G12C); assay: Disruption of BRAF RBD interaction with K-Ras (FRET / MOA assay), K-Ras G12C; assay type: biochemical; details: read-out: KRAS G12C FRET IC50
K-Ras G12C(GMP-PNP) binding to BRAF RBD, sequence (P01116 other isoform, or with tags, fused parts or gaps G12C): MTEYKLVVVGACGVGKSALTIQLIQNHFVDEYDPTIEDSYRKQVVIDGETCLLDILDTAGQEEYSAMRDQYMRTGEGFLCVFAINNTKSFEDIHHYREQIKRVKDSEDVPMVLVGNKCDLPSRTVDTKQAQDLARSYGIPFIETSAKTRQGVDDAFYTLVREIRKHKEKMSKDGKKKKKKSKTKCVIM
K-Ras G12C(GMP-PNP) binding to BRAF RBD, sequence (P62937 whole entry): as the sequence (P62937 whole entry) above
Procedure, shortened: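 Cpd 10-pt 3-fold dilution, top 30 μM final; Ras/CypA/BRAF RBD mix 3 h, 25° C. Add anti-His Eu-W1024 10 nM + anti-GST APC 50 nM final, 1.5 h. Readout TR-FRET ratio decrease vs DMSO → IC50.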

[16] = tested on: NCI-H358 (K-Ras G12C); assay: CellTiter-Glo cell viability assay, NCI-H358; assay type: cell-based, human; details: Homo sapiens, NCI-H358, 120 h, 5-day treatment; read-out: H358 Cell Viability assay data (K-Ras G12C, IC50)
Procedure, shortened: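 After direct compound addition, plates were incubated to day 5 and equilibrated at room temperature for about 30 minutes before CellTiter-Glo reading. Values derive from luminescence relative to the DMSO mean, fitted with a four-parameter logistic model.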

EC50 [1] [µM] | IC50 [2] [µM] | IC50 [3] [µM] | IC50 [4] [µM] | IC50 [5] [µM] | IC50 [6] [µM] | IC50 [7] [µM] | IC50 [8] [µM] | IC50 [9] [µM] | IC50 [10] [µM] | IC50 [11] [µM] | IC50 [12] [µM] | IC50 [14] [µM] | IC50 [15] [µM] | IC50 [16] [µM] | SMILES | IC50 [13] [µM]
< 5 | 0.1 to 1 | 0.01 to 0.1 | 0.1 to 1 | 0.1 to 1 | 0.1 to 1 | 0.1 to 1 | 0.1 to 1 | 0.1 to 1 | 0.1 to 1 | 0.1 to 1 | 0.1 to 1 |  |  |  | CCn1c(-c2cccnc2[C@H](C)OC)c2c3cc(ccc31)-c1csc(n1)C[C@H](NC(=O)[C@H](C(C)C)N(C)C(=O)N1CC3(CN(C)C3)C1)C(=O)N1CCC[C@H](N1)C(=O)OCC(C)(C)C2 [Compound A268] | 0.1 to 1
 |  | 0.01 to 0.1 | 0.1 to 1 | 0.1 to 1 | 0.1 to 1 | 0.1 to 1 | 0.01 to 0.1 | 0.1 to 1 | 0.1 to 1 | 0.1 to 1 | 0.1 to 1 | 0.01 to 0.1 |  |  | CCn1c(-c2cccnc2[C@H](C)OC)c2c3cc(ccc31)-c1csc(n1)C[C@H](NC(=O)[C@H](C(C)C)N(C)C(=O)N1CC(C(C)(C)O)C1)C(=O)N1CCC[C@H](N1)C(=O)OCC(C)(C)C2 [Compound A289] | 0.01 to 0.1
 | 0.01 to 0.1 | 0.01 to 0.1 | 0.01 to 0.1 | 0.1 to 1 | 0.1 to 1 | 0.1 to 1 | 0.01 to 0.1 | 0.1 to 1 |  | 0.01 to 0.1 | 0.01 to 0.1 | 0.01 to 0.1 | > 10 | > 10 | CCn1c(-c2cccnc2[C@H](C)OC)c2c3cc(ccc31)-c1csc(n1)C[C@H](NC(=O)[C@H](C(C)C)N(C)C(=O)N1C[C@H]3COC[C@H]3C1)C(=O)N1CCC[C@H](N1)C(=O)OCC(C)(C)C2 [Compound A312] | 0.01 to 0.1
 | 0.01 to 0.1 | 0.01 to 0.1 | 0.1 to 1 | 0.1 to 1 | 0.1 to 1 | 0.1 to 1 | 0.01 to 0.1 | 0.1 to 1 | 0.1 to 1 | 0.1 to 1 | 0.1 to 1 | 0.01 to 0.1 |  |  | CCn1c(-c2cccnc2[C@H](C)OC)c2c3cc(ccc31)-c1csc(n1)C[C@H](NC(=O)[C@H](C(C)C)N(C)C(=O)N(C)C1COC1)C(=O)N1CCC[C@H](N1)C(=O)OCC(C)(C)C2 [Compound A334] | 0.01 to 0.1
< 5 |  | 0.1 to 1 | 0.1 to 1 | 0.1 to 1 | 1 to 10 | 1 to 10 | 0.1 to 1 | 0.1 to 1 | 0.1 to 1 | 0.1 to 1 | 0.1 to 1 | 0.1 to 1 |  |  | CCn1c(-c2cccnc2[C@H](C)OC)c2c3cc(ccc31)-c1csc(n1)C[C@H](NC(=O)[C@H](C(C)C)N(C)C(=O)N1CC(C(=O)O)C1)C(=O)N1CCC[C@H](N1)C(=O)OCC(C)(C)C2 [Compound A344] | > 10
< 5 |  | 0.01 to 0.1 | 0.1 to 1 | 0.1 to 1 | 0.1 to 1 | 0.1 to 1 | 0.01 to 0.1 | 0.1 to 1 | 0.1 to 1 | 0.1 to 1 | 0.1 to 1 | 0.01 to 0.1 |  |  | CCn1c(-c2cccnc2[C@H](C)OC)c2c3cc(ccc31)-c1csc(n1)C[C@H](NC(=O)[C@H](C(C)C)N(C)C(=O)N1CC(O)C1)C(=O)N1CCC[C@H](N1)C(=O)OCC(C)(C)C2 [Compound A358] | 0.01 to 0.1
